Measurements published in ChEMBL document CHEMBL4715890, “Flavonoids from Sophora alopecuroides L. improve palmitate-induced insulin resistance by inhibiting PTP1B activity in vitro” (Bioorg Med Chem Lett, 2021).
Converted amounts (≈) assume the structure as drawn. The source made the active and inactive calls. The rule behind the calls is not given here.

Tests used:
C2C12 [1] = test: Cytotoxicity against mouse C2C12 cells assessed as reduction in cell viability by MTT assay; type: cell-based; settings: for IC50: Mus musculus, C2C12; for IC10: mouse, c2c12
C2C12 [2] = test: Induction of glucose uptake in mouse C2C12 cells at 1 ug/ml; type: functional, cell-based
C2C12 [3] = test: Induction of glucose uptake in mouse C2C12 cells at 1 ug/ml in presence of insulin; type: functional, cell-based; settings: dose 1.0 µg/ml
[4] = target: T1, Tyrosine-protein phosphatase non-receptor type 1 (Mus musculus) (UniProt P35821); test: Inhibition of PTP1B in mouse PA-induced insulin-resistance C2C12 cells assessed as increase in glucose consumption at 1 ug/ml in presence of insulin after 16 hrs; type: cell-based; settings: dose 1.0 µg/ml
T1 sequence (whole entry): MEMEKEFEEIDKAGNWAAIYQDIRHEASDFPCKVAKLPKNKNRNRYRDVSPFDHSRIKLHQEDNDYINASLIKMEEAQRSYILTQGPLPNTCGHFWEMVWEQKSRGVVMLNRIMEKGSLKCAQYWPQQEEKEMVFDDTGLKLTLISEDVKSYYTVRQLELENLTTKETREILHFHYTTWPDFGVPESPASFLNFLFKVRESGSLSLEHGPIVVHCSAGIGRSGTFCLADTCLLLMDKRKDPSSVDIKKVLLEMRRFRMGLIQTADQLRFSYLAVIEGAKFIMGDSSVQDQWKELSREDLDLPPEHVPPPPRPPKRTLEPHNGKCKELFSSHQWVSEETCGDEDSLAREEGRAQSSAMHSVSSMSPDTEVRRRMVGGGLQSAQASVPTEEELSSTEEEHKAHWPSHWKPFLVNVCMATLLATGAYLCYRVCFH

[5] = target: T2, Tyrosine-protein phosphatase non-receptor type 1 (Homo sapiens) (UniProt P18031); test: Inhibition of PTP1B (unknown origin) at 0.1 ug/ml relative to control; settings: dose 0.1 µg/ml
T2 sequence (whole entry): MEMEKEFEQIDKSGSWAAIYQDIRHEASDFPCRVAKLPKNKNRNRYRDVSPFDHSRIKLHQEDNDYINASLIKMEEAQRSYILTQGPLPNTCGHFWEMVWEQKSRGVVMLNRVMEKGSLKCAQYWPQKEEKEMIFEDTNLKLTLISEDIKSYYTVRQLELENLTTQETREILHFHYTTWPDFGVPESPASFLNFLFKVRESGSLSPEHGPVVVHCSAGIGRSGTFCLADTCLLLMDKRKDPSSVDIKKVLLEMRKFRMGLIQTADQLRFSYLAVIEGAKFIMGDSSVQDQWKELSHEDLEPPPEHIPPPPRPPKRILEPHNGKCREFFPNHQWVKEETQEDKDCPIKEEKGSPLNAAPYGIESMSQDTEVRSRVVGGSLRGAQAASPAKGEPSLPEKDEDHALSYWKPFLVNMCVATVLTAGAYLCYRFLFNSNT

| Glucose consumption increase [4] | inhibition [5] [%] | SMILES | IC50 (C2C12 [1]) [µg/mL] | IC10 (C2C12 [1]) [µg/mL] | Activity (C2C12 [2]) | Activity (C2C12 [3]) |
| --- | --- | --- | --- | --- | --- | --- |
| Active | 70.1 | COc1cc(O)c2c(=O)c(-c3ccc(O)c(OC)c3)coc2c1 | 32.5 (≈ 103 µM) | 6.93 (≈ 22 µM) | Active | Active |
| Active | 88.8 | O=c1c(-c2ccc(O)cc2)coc2cc(O[C@@H]3O[C@H](CO[C@@H]4OC[C@@H](O)[C@H](O)[C@H]4O)[C@@H](O)[C@H](O)[C@H]3O)cc(O)c12 | 34.2 (≈ 60.5 µM) | 6.07 (≈ 10.8 µM) | Active | Active |
| Active | 81.6 | O=C(/C=C/c1ccc(O)c(O)c1)OC[C@H]1O[C@@H](Oc2ccc3c(=O)c(-c4ccc(O)cc4)coc3c2)[C@H](O)[C@@H](O)[C@@H]1O | 31.2 (≈ 54 µM) | 8.81 (≈ 15.2 µM) | Active | Active |
| Active | – | COc1cc(O)c2c(=O)c(-c3ccc(O)cc3)coc2c1 [PRUNETIN] | 23.2 (≈ 81.8 µM) | 7.19 (≈ 25.3 µM) | Active | Active |
| Active | 68.9 | O=c1cc(-c2ccc(O)c(O)c2)oc2cc(O[C@@H]3O[C@H](CO)[C@@H](O)[C@H](O)[C@H]3O)ccc12 | 40 (≈ 92.6 µM) | 10.07 (≈ 23.3 µM) | Active | Active |
| Active | – | O=c1c(-c2ccc3c(c2)OCO3)coc2cc(O)ccc12 [PSEUDOBAPTOGENIN] | 12.1 (≈ 42.8 µM) | 3.49 (≈ 12.4 µM) | Active | Active |
| Active | 95.2 | COc1cc(/C=C/C(=O)OC[C@H]2O[C@@H](Oc3ccc4c(=O)c(-c5ccc(O)c(O)c5)coc4c3)[C@H](O)[C@@H](O)[C@@H]2O)ccc1O | 24.3 (≈ 40 µM) | 7.36 (≈ 12.1 µM) | Active | Active |

Continued, compound first:

| SMILES | Glucose consumption increase [4] | inhibition [5] [%] | IC50 (C2C12 [1]) [µg/mL] | IC10 (C2C12 [1]) [µg/mL] | Activity (C2C12 [2]) | Activity (C2C12 [3]) |
| --- | --- | --- | --- | --- | --- | --- |
| O=C(/C=C/c1ccccc1)c1ccc(O)cc1O [2',4'-DIHYDROXYCHALCONE] | – | – | 32.3 (≈ 134 µM) | 6.14 (≈ 25.6 µM) | Active | Active |
| COc1ccc(-c2cc(=O)c3c(O)cc(O[C@@H]4O[C@H](CO[C@@H]5O[C@@H](C)[C@H](O)[C@@H](O)[C@H]5O)[C@@H](O)[C@H](O)[C@H]4O)cc3o2)cc1O [DIOSMIN] | – | – | 20 (≈ 32.8 µM) | 5.14 (≈ 8.45 µM) | – | – |
| O=C(/C=C/c1ccc(O)c(O)c1)c1ccc(O[C@@H]2O[C@H](CO)[C@@H](O)[C@H](O)[C@H]2O)cc1O | – | – | 20.8 (≈ 47.9 µM) | 4.39 (≈ 10.1 µM) | – | – |
| O=c1c(-c2ccc3c(c2)OCO3)coc2cc(O[C@@H]3O[C@H](CO)[C@@H](O)[C@H](O)[C@H]3O)ccc12 | – | – | 13.5 (≈ 30.3 µM) | 4.18 (≈ 9.41 µM) | – | – |
| O=c1c(O)c(-c2ccc(O)c(O)c2)oc2cc(O)cc(O)c12 [QUERCETIN] | – | – | 30.8 (≈ 102 µM) | 9.23 (≈ 30.5 µM) | – | – |
| O=c1cc(-c2ccc(O)cc2)oc2cc(O)cc(O)c12 [APIGENIN] | – | – | 26.6 (≈ 98.4 µM) | 4.96 (≈ 18.4 µM) | Active | Active |
| O=C(/C=C/c1ccc(O)cc1)c1ccc(O)cc1O [ISOLIQUIRITIGENIN] | – | – | 26.3 (≈ 103 µM) | 7.43 (≈ 29 µM) | Active | Active |
| O=C(/C=C/c1ccc(O)c(O)c1)c1ccc(O)cc1O [BUTEIN] | – | – | 19 (≈ 69.8 µM) | 3.99 (≈ 14.7 µM) | – | – |
| O=c1cc(-c2ccc(O[C@@H]3O[C@H](CO)[C@@H](O)[C@H](O)[C@H]3O)c(O)c2)oc2cc(O)ccc12 | Active | 68.9 | 29 (≈ 67.1 µM) | 5.85 (≈ 13.5 µM) | Active | Active |
